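Each compound was tested at five concentrations against cells in 96-well plates for 48 hours. At the TGI there is no net growth.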 Where a SMILES comes first, the peptide text is derived from it. Bridges are numbered along the chain shown (N, C = ends). [ ]: non-standard residue; d: D form. The star is where a group is joined. ξ: configuration not given here. PhAc = O=C(Cc1ccccc1)*; ξP = O=C(O)C1CCCN1
Assays:
Test in all cases: DTP human tumour cell line panel, 48 h
786-0 renal = test system: 786-0 renal
A498 renal = test system: A498 renal
A549 NSCLC = test system: A549 NSCLC
ACHN renal = test system: ACHN renal
CAKI-1 renal = test system: CAKI-1 renal
CCRF-CEM leukemia = test system: CCRF-CEM leukemia
COLO 205 colon = test system: COLO 205 colon
DU-145 prostate = test system: DU-145 prostate
EKVX NSCLC = test system: EKVX NSCLC
HCC-2998 colon = test system: HCC-2998 colon
HCT-116 colon = test system: HCT-116 colon
HCT-15 colon = test system: HCT-15 colon
HL-60(TB) leukemia = test system: HL-60(TB) leukemia
HOP-62 NSCLC = test system: HOP-62 NSCLC
HOP-92 NSCLC = test system: HOP-92 NSCLC
HS 578T breast = test system: HS 578T breast
HT29 colon = test system: HT29 colon
IGROV1 ovarian = test system: IGROV1 ovarian
KM12 colon = test system: KM12 colon
LOX IMVI melanoma = test system: LOX IMVI melanoma
M14 melanoma = test system: M14 melanoma
MALME-3M melanoma = test system: MALME-3M melanoma
MCF7 breast = test system: MCF7 breast
MDA-MB-231 breast = test system: MDA-MB-231 breast
MDA-MB-435 = test system: MDA-MB-435
MDA-N = test system: MDA-N
MOLT-4 leukemia = test system: MOLT-4 leukemia
NCI-H226 lung = test system: NCI-H226 lung
NCI-H23 lung = test system: NCI-H23 lung
NCI-H460 lung = test system: NCI-H460 lung
NCI/ADR-RES ovarian = test system: NCI/ADR-RES ovarian
OVCAR-3 ovarian = test system: OVCAR-3 ovarian
OVCAR-4 ovarian = test system: OVCAR-4 ovarian
OVCAR-5 ovarian = test system: OVCAR-5 ovarian
OVCAR-8 ovarian = test system: OVCAR-8 ovarian
PC-3 prostate = test system: PC-3 prostate
RXF 393 renal = test system: RXF 393 renal
SF-268 CNS = test system: SF-268 CNS
SF-295 CNS = test system: SF-295 CNS
SF-539 CNS = test system: SF-539 CNS
SK-MEL-2 melanoma = test system: SK-MEL-2 melanoma
SK-MEL-28 melanoma = test system: SK-MEL-28 melanoma
SK-MEL-5 melanoma = test system: SK-MEL-5 melanoma
SK-OV-3 ovarian = test system: SK-OV-3 ovarian
SN12C renal = test system: SN12C renal
SNB-19 CNS = test system: SNB-19 CNS
SNB-75 CNS = test system: SNB-75 CNS
SR leukemia = test system: SR leukemia
SW-620 colon = test system: SW-620 colon
T-47D breast = test system: T-47D breast
TK-10 renal = test system: TK-10 renal
UACC-257 melanoma = test system: UACC-257 melanoma
UACC-62 melanoma = test system: UACC-62 melanoma
K-562 leukemia = test system: K-562 leukemia
NCI-H522 lung = test system: NCI-H522 lung
U251 CNS = test system: U251 CNS

O=C(Cc1ccccc1)N[C@@H]1COC(=O)C2CCCN2C(=O)[C@@H]2CCCN2C1=O (stereo partly drawn) (PhAc-[dS]-Pro-[ξP]; ester 1-C)
TGI (786-0 renal): > 100 µM | TGI (A498 renal): > 100 µM | TGI (A549 NSCLC): > 100 µM | TGI (ACHN renal): > 100 µM | TGI (CAKI-1 renal): > 100 µM | TGI (CCRF-CEM leukemia): > 100 µM | TGI (COLO 205 colon): > 100 µM | TGI (DU-145 prostate): > 100 µM | TGI (EKVX NSCLC): > 100 µM | TGI (HCC-2998 colon): > 100 µM | TGI (HCT-116 colon): > 100 µM | TGI (HCT-15 colon): > 100 µM | TGI (HL-60(TB) leukemia): > 100 µM | TGI (HOP-62 NSCLC): > 100 µM | TGI (HOP-92 NSCLC): > 100 µM | TGI (HS 578T breast): > 100 µM | TGI (HT29 colon): > 100 µM | TGI (IGROV1 ovarian): > 100 µM | TGI (KM12 colon): > 100 µM | TGI (LOX IMVI melanoma): > 100 µM | TGI (M14 melanoma): > 100 µM | TGI (MALME-3M melanoma): > 100 µM | TGI (MCF7 breast): > 100 µM | TGI (MDA-MB-231 breast): > 100 µM | TGI (MDA-MB-435): > 100 µM | TGI (MDA-N): > 100 µM | TGI (MOLT-4 leukemia): > 100 µM | TGI (NCI-H226 lung): > 100 µM | TGI (NCI-H23 lung): > 100 µM | TGI (NCI-H460 lung): > 100 µM | TGI (NCI/ADR-RES ovarian): > 100 µM | TGI (OVCAR-3 ovarian): > 100 µM | TGI (OVCAR-4 ovarian): > 100 µM | TGI (OVCAR-5 ovarian): > 100 µM | TGI (OVCAR-8 ovarian): > 100 µM | TGI (PC-3 prostate): > 100 µM | TGI (RXF 393 renal): > 100 µM | TGI (SF-268 CNS): > 100 µM | TGI (SF-295 CNS): > 100 µM | TGI (SF-539 CNS): > 100 µM | TGI (SK-MEL-2 melanoma): > 100 µM | TGI (SK-MEL-28 melanoma): > 100 µM | TGI (SK-MEL-5 melanoma): > 100 µM | TGI (SK-OV-3 ovarian): > 100 µM | TGI (SN12C renal): > 100 µM | TGI (SNB-19 CNS): > 100 µM | TGI (SNB-75 CNS): 4.79 µM | TGI (SR leukemia): > 100 µM | TGI (SW-620 colon): > 100 µM | TGI (T-47D breast): > 100 µM | TGI (TK-10 renal): > 100 µM | TGI (UACC-257 melanoma): > 100 µM | TGI (UACC-62 melanoma): > 100 µM

OC[C@H]1C[C@@H]2Cc3ccccc3N2N1
TGI (786-0 renal): > 100 µM | TGI (A498 renal): > 100 µM | TGI (A549 NSCLC): > 100 µM | TGI (ACHN renal): > 100 µM | TGI (CAKI-1 renal): > 100 µM | TGI (CCRF-CEM leukemia): > 100 µM | TGI (COLO 205 colon): > 100 µM | TGI (DU-145 prostate): > 100 µM | TGI (EKVX NSCLC): > 100 µM | TGI (HCC-2998 colon): > 100 µM | TGI (HCT-116 colon): > 100 µM | TGI (HCT-15 colon): > 100 µM | TGI (HL-60(TB) leukemia): > 100 µM | TGI (HOP-62 NSCLC): > 100 µM | TGI (HOP-92 NSCLC): > 100 µM | TGI (HS 578T breast): > 100 µM | TGI (HT29 colon): > 100 µM | TGI (IGROV1 ovarian): > 100 µM | TGI (K-562 leukemia): > 100 µM | TGI (KM12 colon): > 100 µM | TGI (LOX IMVI melanoma): > 100 µM | TGI (M14 melanoma): > 100 µM | TGI (MALME-3M melanoma): > 100 µM | TGI (MDA-MB-231 breast): > 100 µM | TGI (MDA-MB-435): > 100 µM | TGI (MDA-N): > 100 µM | TGI (MOLT-4 leukemia): > 100 µM | TGI (NCI-H226 lung): > 100 µM | TGI (NCI-H23 lung): > 100 µM | TGI (NCI-H460 lung): > 100 µM | TGI (NCI-H522 lung): > 100 µM | TGI (NCI/ADR-RES ovarian): > 100 µM | TGI (OVCAR-3 ovarian): > 100 µM | TGI (OVCAR-4 ovarian): > 100 µM | TGI (OVCAR-5 ovarian): > 100 µM | TGI (OVCAR-8 ovarian): > 100 µM | TGI (PC-3 prostate): > 100 µM | TGI (RXF 393 renal): > 100 µM | TGI (SF-268 CNS): > 100 µM | TGI (SF-295 CNS): > 100 µM | TGI (SF-539 CNS): > 100 µM | TGI (SK-MEL-2 melanoma): > 100 µM | TGI (SK-MEL-28 melanoma): > 100 µM | TGI (SK-MEL-5 melanoma): > 100 µM | TGI (SK-OV-3 ovarian): > 100 µM | TGI (SN12C renal): > 100 µM | TGI (SNB-19 CNS): > 100 µM | TGI (SNB-75 CNS): > 100 µM | TGI (SR leukemia): > 100 µM | TGI (SW-620 colon): > 100 µM | TGI (T-47D breast): > 100 µM | TGI (TK-10 renal): > 100 µM | TGI (U251 CNS): > 100 µM | TGI (UACC-257 melanoma): > 100 µM | TGI (UACC-62 melanoma): > 100 µM

From PubChem BioAssay (NCI)
